Patent US20200031858A1, “AVERMECTIN DERIVATIVES AS FXR MODULATORS” (Hepagene Therapeutics, Inc., priority 2017, published 2020)

biological target: T1, FXR-LBD (Farnesoid X Receptor) (Homo sapiens, UniProt Q96RI1); test: LanthaScreen TR-FRET Farnesoid X Receptor Coactivator Assay; assay type: biochemical; conditions: TR-FRET ratio 520 nm/495 nm; 10 doses, 3-fold serial dilution; GW4064 as positive control
T1 construct: Add 5 μl of 4×FXR-LBD to 384 well assay plates; purchased
T1 sequence (Q96RI1 262-486 limits assumed): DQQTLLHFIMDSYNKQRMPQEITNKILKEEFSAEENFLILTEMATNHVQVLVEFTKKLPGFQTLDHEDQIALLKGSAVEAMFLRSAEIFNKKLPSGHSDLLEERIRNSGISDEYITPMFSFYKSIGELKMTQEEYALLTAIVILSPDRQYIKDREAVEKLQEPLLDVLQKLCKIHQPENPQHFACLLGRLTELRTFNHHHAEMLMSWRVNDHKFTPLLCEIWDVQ
Procedure: The compounds of the present technology may be assayed using the following procedure and will be shown to have FXR binding activity.
LanthaScreen™ TR-FRET Farnesoid X Receptor Coactivator Assay
GW4064 as a positive control
• 1. All of compounds were 3-fold serial diluted from 10 mM stock for 10 doses in DMSO. • 2. Dilute each 100× agonist serial dilution to 2× using Complete Coregulator buffer G. • 3. Transfer 10 μl of each of the 2× agonist serial dilutions to 384 well assay plates. • 4. Add 5 μl of 4×FXR-LBD to 384 well assay plates. • 5. Add 5 μl of 4× peptide/4× antibody solution to 384 well assay plates. • 6. Incubate at room temperature protected from light. • 7. Read the plate at wavelengths of 520 nm and 495 nm on Envision 2104 plate reader. • 8. Calculate the TR-FRET ratio by dividing the emission signal at 520 nm by the emission signal at 495 nm. • 9. Calculate EC50 by fitting % Activity values and log of compound concentrations to nonlinear regression (dose response−variable slope) with Graphpad 5.0.

EC50 [nM] | Structure (SMILES)
101 to 300 | CO[C@H]1C[C@H](O[C@@H]2/C(C)=C/C[C@@H]3C[C@@H](C[C@]4(C=C[C@H](C)[C@@H](C5CCCCC5)O4)O3)OC(=O)[C@@H]3C=C(C)[C@@H](O)[C@H]4OC/C(=C\C=C\[C@@H]2C)[C@]43O)O[C@@H](C)[C@@H]1O [Compound 32]
301 to 1000 | CON=C1C(C)=C[C@H]2C(=O)O[C@H]3C[C@@H](C/C=C(\C)[C@@H](O[C@H]4C[C@H](OC)[C@@H](O)[C@H](C)O4)[C@@H](C)/C=C/C=C4\CO[C@H]1[C@@]42O)O[C@@]1(C=C[C@H](C)[C@@H](C2CCCCC2)O1)C3 [Compound 35]
10 to 100 | CO[C@H]1C[C@H](O[C@H]2[C@H](C)O[C@@H](O[C@@H]3/C(C)=C/C[C@@H]4C[C@@H](C[C@]5(C=C[C@H](C)[C@@H](C6CCCCC6)O5)O4)OC(=O)[C@@H]4C=C(C)C(=NO)[C@H]5OC/C(=C\C=C\[C@@H]3C)[C@]54O)C[C@@H]2OC)O[C@@H](C)[C@@H]1O [Compound 31]

Structure (SMILES) | EC50 [nM]
CO[C@H]1C[C@H](O[C@@H]2/C(C)=C/C[C@@H]3C[C@@H](C[C@]4(C=C[C@H](C)[C@@H](C5CCCCC5)O4)O3)OC(=O)[C@@H]3C=C(C)C(=NO)[C@H]4OC/C(=C\C=C\[C@@H]2C)[C@]43O)O[C@@H](C)[C@@H]1O [Compound 33] | 10 to 100
